Twelve compounds from ChEMBL document CHEMBL1134932, “Bridged bicyclic vasopressin receptor antagonists with V(2)-selective or dual V(1a)/V(2) activity” (Bioorg Med Chem Lett, 2002) can be followed below.

Data set [1] concerns Rattus norvegicus. The data set is described as follows: The clearance rate in mature male rat at a intravenous dose of 3 mg/kg. Set-up: dose 3 mg/kg, route intravenous. The data set is classed as ADME, organism-based. As to conditions: in vivo.
Data set [2] is described as follows: Oral bioavailability in rat (mature male) (dose 30 mg/kg). The data set is classed as ADME, organism-based. As to conditions: in vivo.
The nature of data set [3]: The maximum plasma levels for the compounds were determined by LC-MS. Type of data set: ADME, organism-based. As to conditions: rat.
Data set [4] deals with Rattus norvegicus. The data set can be described thus: The diuretic effect in 10 male Sprague-Dawley rats after 4 hrs at a dose of 10 mg/kg by oral route. The data set is classed as functional, Urine.
Data set [5] deals with Rattus norvegicus. The data set can be described thus: The diuretic effect in 10 male Sprague-Dawley rats after 4 hrs at a dose of 1 mg/kg by oral route. Type of data set: functional, Urine.
The subject of data set [6] is Rattus norvegicus. The data set is described as follows: The diuretic effect in 9 male Sprague-Dawley rats after 4 hrs at a dose of 0.3 mg/kg by oral route. Type of data set: functional, Urine.
Data set [7] relates to Rattus norvegicus. The data set is described as follows: The Urine osmolality in 10 male Sprague-Dawley rats after 4 hrs at a dose of 10 mg/kg by oral route. The data set is classed as functional.
Data set [8] has as its system Rattus norvegicus. The data set is described as follows: The Urine osmolality in 10 male Sprague-Dawley rats after 4 hrs at a dose of 1 mg/kg by oral route. Type of data set: functional.
Data set [9] concerns Rattus norvegicus. The data set is described as follows: The Urine osmolality in 10 male Sprague-Dawley rats after 4 hrs at a dose of 3 mg/kg by oral route. The data set is classed as functional.
Data set [10] deals with Rattus norvegicus. The data set can be described thus: The Urine osmolality in 9 male Sprague-Dawley rats after 4 hrs at a dose of 0.3 mg/kg by oral route. Type of data set: functional.
In data set [11] the target is T1, Vasopressin V1a receptor (Homo sapiens, UniProt P37288). The data set can be described thus: Inhibition of [3H]Arg-vasopressin binding to recombinant human vasopressin V1a receptor at 0.1 uM.
Target sequence in this assay (P37288 whole entry, looked up): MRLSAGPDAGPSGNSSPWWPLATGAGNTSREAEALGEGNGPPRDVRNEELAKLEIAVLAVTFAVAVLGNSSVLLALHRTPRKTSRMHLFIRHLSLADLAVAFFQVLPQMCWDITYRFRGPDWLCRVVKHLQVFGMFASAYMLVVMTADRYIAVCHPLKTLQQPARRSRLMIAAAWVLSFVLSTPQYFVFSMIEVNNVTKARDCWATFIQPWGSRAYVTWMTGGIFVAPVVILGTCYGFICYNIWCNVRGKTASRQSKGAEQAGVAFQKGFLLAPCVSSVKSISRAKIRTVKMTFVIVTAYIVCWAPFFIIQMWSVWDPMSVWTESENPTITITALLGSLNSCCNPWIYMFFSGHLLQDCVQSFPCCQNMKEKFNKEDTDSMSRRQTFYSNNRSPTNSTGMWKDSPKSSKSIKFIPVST
Data set [12] concerns the target T2, Vasopressin V2 receptor (Homo sapiens, UniProt P30518). The data set is described as follows: Inhibition of AVP mediated activation of human vasopressin V2 receptor expressed in HEK293 cells. Type of data set: cell-based.
Data set [13] is described as follows: Half life tested in mature male rat at a dose of 30 mg/kg. Type of data set: ADME, organism-based. On the set-up: dose 30 mg/kg. To be noted: in vivo.
Data set [14] has as its system Rattus norvegicus. The data set can be described thus: The diuretic effect in 10 male Sprague-Dawley rats after 4 hrs at a dose of 3 mg/kg by oral route. The data set is classed as functional, Urine.
Data set [15] deals with T2, Vasopressin V2 receptor. The data set can be described thus: Inhibition of [3H]Arg-vasopressin binding to recombinant human vasopressin V2 receptor.
Data set [16] concerns the target T1, Vasopressin V1a receptor. The data set can be described thus: Inhibition of [3H]Arg-vasopressin binding to recombinant human vasopressin V1a receptor.
Target sequence in this assay (P37288 whole entry): as the sequence (P37288 whole entry, looked up) above
For the next data set, the target named is Cytochrome P450 2C9 (Homo sapiens, UniProt P11712). The data set is described as follows: Inhibition of cytochrome P450 2C9. Type of data set: ADME.
Data set [17] deals with Rattus norvegicus. The data set is described as follows: Effective dose for reversal of AVP-Induced Hypertension in pentobarbital-anesthetized male Long-Evans rats. The data set is classed as functional.
The subject of data set [18] is Rattus norvegicus. The data set is described as follows: Excretion of Creatinine at a dose of 10 mg/kg in male Sprague-Dawley rats. Type of data set: functional.
For data set [19], the system named is Rattus norvegicus. The data set can be described thus: Excretion of Creatinine at a dose of 1 mg/kg in male Sprague-Dawley rats. Type of data set: functional.
Data set [20] has as its system Rattus norvegicus. The data set is described as follows: Excretion of Creatinine at a dose of 3 mg/kg in male Sprague-Dawley rats. Type of data set: functional.
In data set [21] the test system is Rattus norvegicus. The data set is described as follows: Excretion of potassium at a dose of 1 mg/kg in male Sprague-Dawley rats. Type of data set: functional.
The test system of data set [22] is Rattus norvegicus. The data set is described as follows: Excretion of potassium at a dose of 3 mg/kg in male Sprague-Dawley rats. The data set is classed as functional.
Data set [23] has as its system Rattus norvegicus. The data set can be described thus: Excretion of sodium at a dose of 10 mg/kg in male Sprague-Dawley rats. Type of data set: functional.
The test system of data set [24] is Rattus norvegicus. The data set can be described thus: Excretion of sodium at a dose of 1 mg/kg in male Sprague-Dawley rats. The data set is classed as functional.
Data set [25] relates to Rattus norvegicus. The data set can be described thus: Excretion of sodium at a dose of 3 mg/kg in male Sprague-Dawley rats. Type of data set: functional.
Data set [26] concerns the target T1, Vasopressin V1a receptor. The data set is described as follows: Inhibition of AVP mediated activation of human vasopressin V1a receptor expressed in HEK293 cells. Type of data set: cell-based.
Target sequence in this assay (P37288 whole entry): as the sequence (P37288 whole entry, looked up) above
The subject of data set [27] is Rattus norvegicus. The data set is described as follows: Excretion of potassium at a dose of 10 mg/kg in male Sprague-Dawley rats. Type of data set: functional.

Molecules are shown by their SMILES. pIC50, pKi: −log10 of the molar value.

T2 sequence (P30518 whole entry): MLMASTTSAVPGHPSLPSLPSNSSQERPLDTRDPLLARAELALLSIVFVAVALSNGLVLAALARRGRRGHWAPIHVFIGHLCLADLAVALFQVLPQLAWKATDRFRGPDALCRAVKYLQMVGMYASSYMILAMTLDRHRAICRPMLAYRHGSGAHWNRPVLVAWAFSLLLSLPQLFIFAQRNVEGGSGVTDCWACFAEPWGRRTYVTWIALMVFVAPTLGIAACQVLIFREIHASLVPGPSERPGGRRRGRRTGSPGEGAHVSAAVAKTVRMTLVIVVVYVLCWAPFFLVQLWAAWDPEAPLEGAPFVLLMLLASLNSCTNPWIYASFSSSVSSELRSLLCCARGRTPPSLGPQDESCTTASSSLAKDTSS
Chain of Cytochrome P450 2C9 (P11712 whole entry): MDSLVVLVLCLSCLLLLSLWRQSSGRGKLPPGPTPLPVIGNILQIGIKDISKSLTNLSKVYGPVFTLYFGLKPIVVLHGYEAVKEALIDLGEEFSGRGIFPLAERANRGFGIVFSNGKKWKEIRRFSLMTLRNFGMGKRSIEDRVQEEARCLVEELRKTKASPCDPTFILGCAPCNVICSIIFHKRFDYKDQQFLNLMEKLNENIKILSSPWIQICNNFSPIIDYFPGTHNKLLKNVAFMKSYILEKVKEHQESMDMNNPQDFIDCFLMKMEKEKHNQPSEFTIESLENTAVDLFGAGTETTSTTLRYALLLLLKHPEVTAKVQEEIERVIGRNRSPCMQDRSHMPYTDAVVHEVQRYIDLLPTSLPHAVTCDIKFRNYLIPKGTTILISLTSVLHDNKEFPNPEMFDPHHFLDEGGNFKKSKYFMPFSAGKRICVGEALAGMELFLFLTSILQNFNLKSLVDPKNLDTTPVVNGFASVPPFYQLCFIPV

Broadly, the bioavailability is dose-corrected exposure relative to a reference, in per cent. A higher bioavailability goes with much systemic uptake. As usually defined, the Cmax is the peak of the concentration-time curve. What is called inhibition is the change of the read-out against control, counted positive when it falls. The pKi is the negative decadic logarithm of the Ki, by convention in mol/L. A low value points to a high Ki. In general, half-life refers to the time in which the quantity being followed falls by half. A higher half-life goes with slow loss. In turn, `O=C(Nc1ccc(C(=O)N2C[C@H]3C4CCC(C4)N3Cc3ccccc32)c(Cl)c1)c1ccccc1-c1ccccc1` (some centres undefined) showed a Clearance in the data set on Rattus norvegicus [1] of 3.3 mg/kg/µM/h. Further, the bioavailability in data set [2] came out at 10%. This compound also returned a maximum concentration (Cmax) in data set [3] of 230 nM. Moreover, the Urine volume stood at 19.5 mL in the data set with Rattus norvegicus [4], 3.4 mL in the data set on Rattus norvegicus [5], 1.4 mL in the data set on Rattus norvegicus [6] and 9.4 mL with Rattus norvegicus [14]. The Urine osmolality turned out to be 172 mOsmol kg-1 in the data set on Rattus norvegicus [7], 303 mOsmol kg-1 with Rattus norvegicus [8], 238 mOsmol kg-1 in the data set on Rattus norvegicus [9] and 408 mOsmol kg-1 in the data set with Rattus norvegicus [10]. Moreover, the inhibition on Vasopressin V1a receptor [11] came to 7%. The compound further gave a negative logarithm of the Ki (pKi) at Vasopressin V2 receptor [12] of 7.52. In data set [13], the half-life is 2.5 h.

A word on the pIC50: it is the negative decadic logarithm of the IC50, by convention in mol/L. Regarding `Cc1ccc(F)cc1C(=O)Nc1ccc(C(=O)N2Cc3cccn3Cc3ccccc32)c(Cl)c1` [LIXIVAPTAN], the pIC50 on Vasopressin V2 receptor [15] was 8.30; on Vasopressin V1a receptor [16], 6.82. At Vasopressin V2 receptor [12], this compound showed a negative logarithm of the Ki (pKi) of 7.05.

Broadly, the ED50 is the midpoint of the dose-response relation. As to `Cc1ccc(-c2ccccc2C(=O)Nc2ccc(C(=O)N3C[C@@H]4C5CCC(C5)N4Cc4cc(Cl)ccc43)cc2)cc1` (some centres undefined), in the data set on Rattus norvegicus [1], the Clearance turned out to be 2.1 mg/kg/µM/h. The bioavailability in data set [2] was found to be 7%. In data set [3], this compound returned a peak concentration (Cmax) of 320 nM. This compound showed a negative-log IC50 (pIC50) against Cytochrome P450 2C9 of 5.13. Besides, the 50% effective dose (ED50) in the data set with Rattus norvegicus [17] stood at 0.0074 mg/kg. The Excretion with Rattus norvegicus [18] was 7.7 mg/dL; in the data set with Rattus norvegicus [19] it was 31.4 mg/dL; with Rattus norvegicus [20] it was 16.2 mg/dL; with Rattus norvegicus [21] it was 0.3 m equiv 4hr-1; in the data set with Rattus norvegicus [22], 0.34 m equiv 4hr-1; in the data set on Rattus norvegicus [23], 0.52 m equiv 4hr-1. The Excretion was found to be 0.07 m equiv 4hr-1 in the data set on Rattus norvegicus [24], 0.16 m equiv 4hr-1 in the data set on Rattus norvegicus [25] and 0.64 m equiv 4hr-1 in the data set on Rattus norvegicus [27]. Besides, the Urine volume with Rattus norvegicus [4] was 17.8 mL; in the data set on Rattus norvegicus [5], 2.9 mL; in the data set on Rattus norvegicus [14], 5.8 mL. The Urine osmolality in the data set with Rattus norvegicus [7] came to 159 mOsmol kg-1; in the data set with Rattus norvegicus [8], 387 mOsmol kg-1; in the data set on Rattus norvegicus [9] it was 226 mOsmol kg-1. The pKi on Vasopressin V1a receptor [26] is 7.64; at Vasopressin V2 receptor [12], 7.89. For the same compound, in [13], the half-life is 2.5 h.

Take `Cc1ccc(-c2ccccc2C(=O)Nc2ccc(C(=O)N3C[C@@H]4C5CCC(C5)N4Cc4cc(Cl)ccc43)c(Cl)c2)cc1` (some centres undefined): the negative-log IC50 (pIC50) was 7.52 at Vasopressin V2 receptor [15] and 7.46 on Vasopressin V1a receptor [16].

As to `O=C(Nc1ccc(C(=O)N2C[C@@H]3C4CCC(C4)N3Cc3cc(Cl)ccc32)cc1)c1ccccc1Cl` (some centres undefined), the results for the negative-log IC50 (pIC50) at Vasopressin V2 receptor [15] and at Vasopressin V1a receptor [16] were 8.00 and 8.30, respectively. Moreover, the pKi was 6.89 on Vasopressin V1a receptor [26] and 7.49 at Vasopressin V2 receptor [12].

Regarding `O=C(Nc1ccc(C(=O)N2CC3C4CCC(CC4)N3Cc3ccccc32)cc1)c1ccccc1-c1ccccc1` (centres undefined), on Vasopressin V1a receptor [16], the negative-log IC50 (pIC50) is around 7.00.

With `O=C(Nc1ccc(C(=O)N2C[C@@H]3C4CCC(C4)N3Cc3cc(Cl)ccc32)cc1)c1ccccc1F` (some centres undefined), the values for the pIC50 at Vasopressin V2 receptor [15] and at Vasopressin V1a receptor [16] were 7.59 and 7.17, respectively. Besides, the pKi at Vasopressin V1a receptor [26] is 5.59; on Vasopressin V2 receptor [12], 6.74.

`O=C(Nc1ccc(C(=O)N2C[C@@H]3C4CCC(C4)N3Cc3ccccc32)c(Cl)c1)c1ccccc1-c1ccccc1` (some centres undefined) yielded a Clearance in the data set on Rattus norvegicus [1] of 1.2 mg/kg/µM/h. This compound gave a bioavailability in [2] of 14%. The highest level in data set [3] (Cmax) was 650 nM. For the same compound, in the data set with Rattus norvegicus [17], the ED50 is 0.217 mg/kg. For the same compound, the Urine volume with Rattus norvegicus [4] stood at 29.9 mL; in the data set on Rattus norvegicus [5], 6 mL; in the data set with Rattus norvegicus [6], 2.5 mL; in the data set with Rattus norvegicus [14], 15.1 mL. For the same compound, the Urine osmolality with Rattus norvegicus [7] is 138 mOsmol kg-1; in the data set with Rattus norvegicus [8], 299 mOsmol kg-1; with Rattus norvegicus [9] it was 180 mOsmol kg-1; in the data set with Rattus norvegicus [10], 444 mOsmol kg-1. In addition, the negative logarithm of the Ki (pKi) on Vasopressin V1a receptor [26] is 6.89; on Vasopressin V2 receptor [12], 8.05. In data set [13], this compound had a half-life of 5 h.

`O=C(Nc1ccc(C(=O)N2C[C@@H]3C4CCC(CC4)N3Cc3cc(Cl)ccc32)cc1)c1ccccc1Cl`: the pIC50 on Vasopressin V2 receptor [15] is 7.89; on Vasopressin V1a receptor [16], 7.46. Also, the values for the pKi on Vasopressin V1a receptor [26] and at Vasopressin V2 receptor [12] were 6.21 and 6.28, respectively.

As to `Cc1cc(F)cc(C(=O)Nc2ccc(C(=O)N3C[C@@H]4C5CCC(CC5)N4Cc4ccccc43)c(Cl)c2)c1`, the negative-log IC50 (pIC50) on Vasopressin V2 receptor [15] was 7.72. The inhibition on Vasopressin V1a receptor [11] was found to be 15%.

For the compound `O=C(Nc1ccc(C(=O)N2CC3C4CCC(CC4)N3Cc3ccccc32)c(Cl)c1)c1ccccc1-c1ccccc1` (centres undefined), the pIC50 at Vasopressin V2 receptor [15] was 8.40. Further, the inhibition on Vasopressin V1a receptor [11] came out at 30%.

As for `O=C(Nc1ccc(C(=O)N2C[C@@H]3C4CCC(C4)N3Cc3cc(Cl)ccc32)cc1)c1ccccc1C(F)(F)F` (some centres undefined), in the data set with Rattus norvegicus [17], the median effective dose (ED50) was determined as 0.38 mg/kg. Besides, the pIC50 is 8.15 at Vasopressin V2 receptor [15] and 8.40 on Vasopressin V1a receptor [16]. In addition, the negative-log Ki (pKi) at Vasopressin V1a receptor [26] was 7.40; at Vasopressin V2 receptor [12] it was 8.05.
